In general, pIC50 refers to −log10 of the IC50, conventionally taken in molar units.

The experiment addresses T1, HDM2 (Homo sapiens, UniProt Q00987).
T1 construct: Thioredoxin (N); made in house; host or cells: E. coli strain BL21(DE3)Rosetta
In words: HDM2 FRET assay (inhibition of binding of FITC labeled p53-pocket peptide to HDM2). Conditions: read-out: FRET IC50. Put shortly:
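Signal is read as the 520/495 nm emission ratio and converted to percent inhibition; nonlinear sigmoidal regression yields IC50. The assay mixes HDM2 (0.5 nM), FITC-p53 peptide (3 nM) and Tb anti-His antibody (0.25 nM) at 0.1% DMSO.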

Setting [1] is: 0.5 nM HDM2 (residues 17 to 125), 3nM peptide, two hour incubation at room temperature.

pIC50: −log10 of the molar value. Where two headings read alike, the source gives them in different places.

T1 sequence (Q00987 17-125): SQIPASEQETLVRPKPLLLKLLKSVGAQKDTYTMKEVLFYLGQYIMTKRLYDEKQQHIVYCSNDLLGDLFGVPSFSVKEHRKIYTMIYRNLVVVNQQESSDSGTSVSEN

With `C[C@@H](Nc1nc(C(=O)O)nc2nc(N3CCCCC3c3cccc(F)c3)n(C[C@H]3CC[C@H](C)CC3)c12)C1CCC1` (stereo partly drawn) [Example 11.16, 6-{[(1R)-1-cyclobutylethyl]amino}-8-[2-(3-fluorophenyl)piperidin-1-yl]-7-[(trans-4-methylcyclohexyl)methyl]-7H-purine-2-carboxylic acid], the pIC50 (Table 11) was 8.55. With `C[C@@H](Nc1nc(-c2noc(=O)[nH]2)nc2nc(N3CCCC3C3CCC3)n(C[C@H]3CC[C@H](C)CC3)c12)C1CCC1` (stereo partly drawn) [Example 11.38, 3-(6-{[(1R)-1-cyclobutylethyl]amino}-8-(2-cyclobutylpyrrolidin-1-yl)-7-[(trans-4-methylcyclohexyl)methyl]-7H-purin-2-yl)-1,2,4-oxadiazol-5(2H)-one], the pIC50 (Table 11) is 8.31. As for `C=CCN(c1nc2nc(C(=O)O)nc(N[C@H](C)C3CCC3)c2n1Cc1ccc(C(F)(F)F)cc1)C(C)c1ccccn1` (stereo partly drawn) [Example 10.30, 8-(Allyl(1-(pyridin-2-yl)ethyl)amino)-6-(((R)-1-cyclobutylethyl)amino)-7-(4-(trifluoromethyl)benzyl)-7H-purine-2-carboxylic acid], the negative logarithm of the IC50 (pIC50) (Table 10) is 8.04. On to `C[C@H]1CC[C@H](Cn2c(N3CCO[C@@H]4CCC[C@H]43)nc3nc(-c4n[nH]c(=O)o4)nc(-c4cncc(Cl)c4)c32)CC1` [Example 16.90, 5-{6-(5-chloropyridin-3-yl)-8-[(4aR,7aR)-hexahydrocyclopenta [b][1,4]oxazin-4(4aH)-yl]-7-[(trans-4-methylcyclohexyl)methyl]-7H-purin-2-yl}-1,3,4-oxadiazol-2(3H)-one], for which, under setting [1], the pIC50 was 8.64.

For `C[C@@H](Nc1nc(C(=O)O)nc2nc(N3CCCCC3Cc3cccc(C(F)(F)F)c3)n(Cc3ccc(C(F)(F)F)cc3)c12)C1CCC1` (stereo partly drawn) [Example 9.68, 6-{[(1R)-1-cyclobutylethyl]amino}-7-[4-(trifluoromethyl)benzyl]-8-{2-[3-(trifluoromethyl)benzyl]piperidin-1-yl}-7H-purine-2-carboxylic acid], the pIC50 (Table 9) is 6.96.

As to `CC(C)c1ccnc(-c2nc3nc(C(=O)O)nc(N[C@H](C)C4CCC4)c3n2CC2CCC(C)(C)CC2)c1` [Example 18.8, (R)-6-((1-cyclobutylethyl)amino)-7-((4,4-dimethylcyclohexyl)methyl)-8-(4-isopropylpyridin-2-yl)-7H-purine-2-carboxylic acid], the negative logarithm of the IC50 (pIC50) (Table 18) was 7.23. On to `C[C@@H](Nc1nc(-c2n[nH]c(=O)o2)nc2nc(N3CCO[C@H](C)[C@@H]3C)n(C[C@H]3CC[C@H](C)CC3)c12)C1CCC1` (single isomer, unassigned) [Example 11.157], for which, for the setting “Table 11”, the negative logarithm of the IC50 (pIC50) was 7.33. `COC(c1ccccc1C#N)c1nc2nc(-c3noc(=O)[nH]3)nc(-c3cncc(Cl)c3)c2n1C[C@H]1CC[C@H](C)CC1` (mixture of isomers) [Example 23.109, 2-{[6-(5-chloropyridin-3-yl)-7-[(trans-4-methylcyclohexyl)methyl]-2-(5-oxo-4,5-dihydro-1,2,4-oxadiazol-3-yl)-7H-purin-8-yl](methoxy)methyl}benzonitrile]: the pIC50 (Table 23) is 9.15. For the compound `C[C@H]1CC[C@H](Cn2c(C(O)C3CCOCC3)nc3nc(-c4noc(=O)[nH]4)nc(-c4cncc(Cl)c4)c32)CC1` (mixture of isomers) [Example 23.17, 3-{6-(5-chloropyridin-3-yl)-8-[hydroxy(tetrahydro-2H-pyran-4-yl)methyl]-7-[(trans-4-methylcyclohexyl)methyl] -7H-purin-2-yl}-1,2,4-oxadiazol-5(4H)-one], the pIC50 (Table 23) is 7.17. `C[C@@H](Nc1nc(-c2n[nH]c(=O)o2)nc2nc(N3CCO[C@H]4CCCC[C@H]43)n(C[C@H]3CC[C@H](C)CC3)c12)C1CCC1` (single isomer, unassigned) [Example 11.161]: under “Table 11”, the pIC50 is 7.53. Still for that read-out and setting: with `C[C@@H]1COCCN1c1nc2nc(-c3noc(=O)[nH]3)nc(N[C@H](C)C3CCC3)c2n1C[C@H]1CC[C@H](C)CC1` [Example 11.65, 3-(6-{[(1R)-1-cyclobutylethyl]amino}-7-[(trans-4-methylcyclohexyl)methyl]-8-[(3R)-3-methylmorpholin-4-yl]-7H-purin-2-yl)-1,2,4-oxadiazol-5(4H)-one] the figure was 8.84. For the compound `Cc1cccc(-c2nc3nc(-c4nnn[nH]4)nc(N[C@H](C)C4CC4)c3n2Cc2ccc(C(F)(F)F)cc2)c1` [Example 12.26, N-[(1R)-1-cyclopropylethyl]-8-(3-methylphenyl)-2-(1H-tetrazol-5-yl)-7-[4-(trifluoromethyl)benzyl]-7H-purin-6-amine], the pIC50 under setting [1] was 7.28. As for `C[C@@H](Nc1nc(-c2noc(=O)[nH]2)nc2nc(C(C)(O)C(F)(F)F)n(C[C@H]3CC[C@H](C)CC3)c12)C1CCC1` (single isomer, unassigned) [Example 22.12], for the setting “Table 22”, the pIC50 is 7.57. For `Cc1cccc(-c2nc3nc(C(=O)O)nc(N[C@H](CCCN(C)C)C4CCC4)c3n2Cc2ccc(C(F)(F)F)cc2)c1` [Example 7.11, 6-{[(1R)-1-cyclobutyl-4-(dimethylamino)butyl]amino}-8-(3-methylphenyl)-7-[4-(trifluoromethyl)benzyl]-7H-purine-2-carboxylic acid], the negative logarithm of the IC50 (pIC50) (Table 7) is 6.49. On to `C[C@@H](Nc1nc(C(=O)O)nc2nc(N3CCOC(C)(C)C3)n(Cc3ccc(C(F)(F)F)cc3)c12)C1CCC1` [Example 9.18, 6-{[(1R)-1-cyclobutylethyl]amino}-8-(2,2-dimethylmorpholin-4-yl)-7-[4-(trifluoromethyl)benzyl]-7H-purine-2-carboxylic acid], for which, under “Table 9”, the pIC50 is 7.49.

Consider `COC[C@@H]1CC[C@@H](COC)N1c1nc2nc(-c3noc(=O)[nH]3)nc(-c3cccc(Cl)c3)c2n1C[C@H]1CC[C@H](C)CC1` [Example 16.149, 3-{8-[(2S,5S)-2,5-bis(methoxymethyl)pyrrolidin-1-yl]-6-(3-chlorophenyl)-7-[(trans-4-methylcyclohexyl)methyl]-7H-purin-2-yl}-1,2,4-oxadiazol-5(4H)-one], for which the pIC50 under setting [1] was 8.42. Take `Cc1cccc(-c2nc3nc(C(=O)O)nc(N[C@@H](C)c4ccccc4)c3n2Cc2ccc(C(F)(F)F)cc2)c1` [Example 6.31, 8-(3-methylphenyl)-6-{[(1S)-1-phenylethyl]amino}-7-[4-(trifluoromethyl)benzyl]-7H-purine-2-carboxylic acid]: the pIC50 (Table 6) is 5.37. For `CC(O)c1nc2nc(-c3noc(=O)[nH]3)nc(N[C@H](C)C3CCC3)c2n1C[C@H]1CC[C@H](C)CC1` (single isomer, unassigned) [Example 22.14], the pIC50 (Table 22) was 7.09.

For the compound `C[C@@H](Nc1nc(-c2noc(=O)[nH]2)nc2nc(N3CCCC3c3ccccc3)n(C[C@H]3CC[C@H](C)CC3)c12)C1CCC1` (single isomer, unassigned) [Example 11.136], where the note is “Table 11”, the negative-log IC50 (pIC50) was 6.29. Still for that read-out and setting: with `C[C@@H](Nc1nc(-c2nc(=O)o[nH]2)nc2nc(N3CCCC[C@@H]3C)n(C[C@H]3CC[C@H](C)CC3)c12)C1CCC1` (single isomer, unassigned) [Example 11.59] the figure was 7.87.

Regarding `COc1cc(-c2nc(-c3noc(=O)[nH]3)nc3nc(N4CCOC[C@H]4c4ccccc4)n(C[C@H]4CC[C@H](C)CC4)c23)cc(Cl)n1` [Example 16.109, 3-{6-(2-chloro-6-methoxypyridin-4-yl)-7-[(trans-4-methylcyclohexyl)methyl]-8-[(3R)-3-phenylmorpholin-4-yl]-7H-purin-2-yl}-1,2,4-oxadiazol-5(4H)-one], the negative-log IC50 (pIC50) under setting [1] is 8.92. For the compound `CC[C@H]1CC[C@H](Cn2c(-c3cccc(C)c3)nc3nc(C(=O)O)nc(N[C@H](C)C4CCC4)c32)CC1` [Example 18.15, 6-{[(1R)-1-cyclobutylethyl]amino}-7-[(trans-4-ethylcyclohexyl)methyl]-8-(3-methylphenyl)-7H-purine-2-carboxylic acid], the pIC50 (Table 18) was 6.70.

Take `CC(C)C[C@H]1CCCCN1c1nc2nc(-c3noc(=O)[nH]3)nc(N[C@H](C)C3CCC3)c2n1C[C@H]1CC[C@H](C)CC1` [Example 11.83, 3-(6-{[(1R)-1-cyclobutylethyl]amino}-7-[(trans-4-methylcyclohexyl)methyl]-8-[(2R)-2-(2-methylpropyl)piperidin-1-yl]-7H-purin-2-yl)-1,2,4-oxadiazol-5(4H)-one]: the pIC50 (Table 11) was 7.94.

Turning to `Cc1cccc(-c2nc3nc(C(=O)O)nc(NC4CCCC4C)c3n2Cc2ccc(C(F)(F)F)cc2)c1` (stereo not shown) [Example 6.21, 6-[(2-methylcyclopentyl)amino]-8-(3-methylphenyl)-7-[4-(trifluoromethyl)benzyl]-7H-purine-2-carboxylic acid], the pIC50 (Table 6) was 6.37.

In the case of `C[C@H](CO)Nc1nc2nc(C(=O)O)nc(N[C@H](C)C3CCC3)c2n1Cc1ccc(C(F)(F)F)cc1` [Example 9.7, 6-{[(1R)-1-cyclobutylethyl]amino}-8-{[(1R)-2-hydroxy-1-methylethyl]amino}-7-[4-(trifluoromethyl)benzyl]-7H-purine-2-carboxylic acid], for the setting “Table 9”, the pIC50 is 7.45.

With `C[C@@H](Nc1nc(-c2noc(=O)[nH]2)nc2nc(N3CCC(F)(F)CC3)n(C[C@H]3CC[C@H](C)CC3)c12)C1CCC1` [Example 11.80, 3-(6-{[(1R)-1-cyclobutylethyl]amino}-8-(4,4-difluoropiperidin-1-yl)-7-[(trans-4-methylcyclohexyl)methyl]-7H-purin-2-yl)-1,2,4-oxadiazol-5(2H)-one], the pIC50 (Table 11) was 7.59. As to `C[C@@H](Nc1nc(-c2noc(=O)[nH]2)nc2nc(N3CCCC3C[S+](C)[O-])n(C[C@H]3CC[C@H](C)CC3)c12)C1CCC1` (single isomer, unassigned) [Example 11.154], the pIC50 (Table 11) was 7.15. With `CCN(CC)c1nc(C(=O)O)nc2nc(-c3cccc(C)c3)n(Cc3ccc(C(F)(F)F)cc3)c12` [Example 6.51, 6-(diethylamino)-8-(3-methylphenyl)-7-[4-(trifluoromethyl)benzyl]-7H-purine-2-carboxylic acid], the pIC50 (Table 6) was 5.34.

(Values after EP2951180B1, “2,6,7,8 SUBSTITUTED PURINES AS HDM2 INHIBITORS” (Merck Sharp & Dohme Corp., priority 2013, dated 2014).)
